Where a name gives a salt, the structure may show the parent alone. Read-outs that look alike come from different tables or passages of the source.
Columns and labels:
Format in all cases: cell-based, human
Target C mRNA = test: Splicing RT-qPCR panel, Target C canonical junction (CJ) mRNA; settings: Homo sapiens, read-out: Target C CJ (decrease in CJ mRNA levels, IC50)
How it was run: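 A673 cells (DMEM, 10% FBS) or K562 cells (IMDM, 10% FBS) treated 24 h at 37 °C with an 11-point 3-fold dilution, top 10 uM, DMSO ≤0.25%. Canonical-junction mRNA quantified in lysates by RT-qPCR, normalised to GAPDH, GUSB or PPIA and to DMSO (2^−ΔΔCt), then converted to % response.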

HTT mRNA = test: Splicing RT-qPCR assay, HTT canonical (CJ) and alternative (AJ) junction mRNA; settings: Homo sapiens; for IC50: canonical junction mRNA; for AC50: alternative junction mRNA, read-out: HTT AJ (AC50, increase in AJ mRNA)
How it was run: (§1)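 A673 cells (DMEM, 10% FBS) or K562 cells (IMDM, 10% FBS) were treated for 24 h at 37° C with an 11-point 3-fold dilution series, top dose 10 uM, DMSO ≤0.25%. Canonical and alternative junction mRNA was measured in lysates by one-step RT-qPCR. Normalization used PPIA for A673 and GAPDH or GUSB for K562.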

MYB mRNA = test: Splicing RT-qPCR assay, MYB canonical (CJ) and alternative (AJ) junction mRNA; settings: Homo sapiens; for IC50: canonical junction mRNA; for AC50: alternative junction mRNA, read-out: MYB AJ (AC50, increase in AJ mRNA)
How it was run: as §1

[1] = 24 h, RT-qPCR, A673 or K562 cells, 24 hours treatment, read-out: HTT CJ (IC50, decrease in CJ mRNA)
[2] = qPCR panel, read-out: HTT CJ (decrease in CJ mRNA levels, IC50)
[3] = RT-qPCR, A673 or K562 cells, 24 hours treatment
[4] = qPCR panel, read-out: MYB CJ (decrease in CJ mRNA levels, IC50)
[5] = RT-qPCR, A673 or K562 cells, 24 hours treatment, read-out: MYB CJ (IC50, decrease in CJ mRNA)

CNC(=O)c1cc(-c2cc3cn(C)nc3c(C)c2O)nc2ncc(N3CCNCC3)cc12 [Compound 150, 2-(6-hydroxy-2,7-dimethylindazol-5-yl)-N-methyl-6-(piperazin-1-yl)-1,8-naphthyridine-4-carboxamide]
> 10000 nM: IC50 (Target C mRNA) | IC50 (HTT mRNA; [1]) | IC50 (HTT mRNA; [2]) | AC50 (HTT mRNA; [3]) | IC50 (MYB mRNA; [4]) | AC50 (MYB mRNA; [3]) | IC50 (MYB mRNA; [5])

Cc1cc(-c2cc3cn(C)nc3c(C)c2O)nc2ncc(N3CCNCC3)cc12 [Compound 151, 2,7-dimethyl-5-[4-methyl-6-(piperazin-1-yl)-1,8-naphthyridin-2-yl]indazol-6-ol]
1000 to 10000 nM: IC50 (Target C mRNA)
100 to 1000 nM: IC50 (HTT mRNA; [1]) | IC50 (HTT mRNA; [2]) | AC50 (HTT mRNA; [3])
< 100 nM: IC50 (MYB mRNA; [4]) | AC50 (MYB mRNA; [3]) | IC50 (MYB mRNA; [5])

Cc1cn2cc(-c3cc(Cl)c4cc(N5CCNCC5)cnc4n3)cc(F)c2n1 [Compound 153, 4-chloro-2-{8-fluoro-2-methylimidazo[1,2-a]pyridin-6-yl}-6-(piperazin-1-yl)-1,8-naphthyridine]
< 100 nM: AC50 (MYB mRNA; [3])
100 to 1000 nM: IC50 (HTT mRNA; [1]) | IC50 (HTT mRNA; [2]) | IC50 (MYB mRNA; [4]) | IC50 (MYB mRNA; [5])
1000 to 10000 nM: IC50 (Target C mRNA) | AC50 (HTT mRNA; [3])

CN[C@H]1CCN(c2cnc3nc(-c4cc5cn(C)nc5c(F)c4O)cc(Cl)c3c2)C1 [Compound 272]
< 100 nM: IC50 (HTT mRNA; [1]) | IC50 (HTT mRNA; [2]) | AC50 (HTT mRNA; [3]) | IC50 (MYB mRNA; [4]) | AC50 (MYB mRNA; [3]) | IC50 (MYB mRNA; [5])
100 to 1000 nM: IC50 (Target C mRNA)

Cn1cc2cc(-c3cc(Cl)c4cc(N5CCNC6(CC6)C5)cnc4n3)c(O)c(F)c2n1 [Compound 274]
100 to 1000 nM: IC50 (HTT mRNA; [1]) | IC50 (HTT mRNA; [2]) | AC50 (HTT mRNA; [3])
1000 to 10000 nM: IC50 (Target C mRNA)
< 100 nM: IC50 (MYB mRNA; [4]) | AC50 (MYB mRNA; [3]) | IC50 (MYB mRNA; [5])

CN(c1cnc2nc(-c3cc4cn(C)nc4c(F)c3O)cc(Cl)c2c1)[C@H]1CCNC1 [Compound 275]
< 100 nM: IC50 (MYB mRNA; [4]) | AC50 (MYB mRNA; [3]) | IC50 (MYB mRNA; [5])
1000 to 10000 nM: IC50 (Target C mRNA) | IC50 (HTT mRNA; [1]) | IC50 (HTT mRNA; [2]) | AC50 (HTT mRNA; [3])

CN(c1cnc2nc(-c3cc4cn(C)nc4c(F)c3O)cc(Cl)c2c1)[C@@H]1CCNC1 [Compound 276]
< 100 nM: IC50 (MYB mRNA; [4]) | AC50 (MYB mRNA; [3]) | IC50 (MYB mRNA; [5])
1000 to 10000 nM: IC50 (Target C mRNA)
100 to 1000 nM: IC50 (HTT mRNA; [1]) | IC50 (HTT mRNA; [2]) | AC50 (HTT mRNA; [3])

Cc1c(O)c(-c2ccc3c(Cl)c(N4CCNCC4)cnc3n2)cc2cn(C)nc12 [Compound 278, 5-[5-chloro-6-(piperazin-1-yl)-1,8-naphthyridin-2-yl]-2,7-dimethylindazol-6-ol]
< 100 nM: IC50 (MYB mRNA; [4]) | AC50 (MYB mRNA; [3]) | IC50 (MYB mRNA; [5])
1000 to 10000 nM: IC50 (Target C mRNA) | IC50 (HTT mRNA; [1]) | IC50 (HTT mRNA; [2]) | AC50 (HTT mRNA; [3])

C[C@@H]1CN(c2cnc3nc(-c4cc5cn(C)nc5c(F)c4O)cc(Cl)c3c2)C[C@H](C)N1 [Compound 279]
< 100 nM: IC50 (MYB mRNA; [4]) | AC50 (MYB mRNA; [3]) | IC50 (MYB mRNA; [5])
100 to 1000 nM: IC50 (HTT mRNA; [1]) | IC50 (HTT mRNA; [2]) | AC50 (HTT mRNA; [3])
1000 to 10000 nM: IC50 (Target C mRNA)

C[C@H]1CN(c2cnc3nc(-c4cc5cn(C)nc5c(F)c4O)cc(Cl)c3c2)C[C@H](C)N1 [Compound 280]
< 100 nM: IC50 (Target C mRNA) | IC50 (HTT mRNA; [1]) | IC50 (HTT mRNA; [2]) | AC50 (HTT mRNA; [3]) | IC50 (MYB mRNA; [4]) | AC50 (MYB mRNA; [3]) | IC50 (MYB mRNA; [5])

C[C@@H]1CN(c2cnc3nc(-c4cc5cn(C)nc5c(F)c4O)cc(Cl)c3c2)C[C@@H](C)N1 [Compound 281]
100 to 1000 nM: IC50 (Target C mRNA) | AC50 (HTT mRNA; [3])
< 100 nM: IC50 (HTT mRNA; [1]) | IC50 (HTT mRNA; [2]) | IC50 (MYB mRNA; [4]) | AC50 (MYB mRNA; [3]) | IC50 (MYB mRNA; [5])

CN(c1cnc2nc(-c3cc4cn(C)nc4c(F)c3O)ccc2c1)C1CCNCC1 [Compound 284]
> 10000 nM: IC50 (Target C mRNA)
100 to 1000 nM: IC50 (MYB mRNA; [4]) | AC50 (MYB mRNA; [3]) | IC50 (MYB mRNA; [5])
1000 to 10000 nM: IC50 (HTT mRNA; [1]) | IC50 (HTT mRNA; [2]) | AC50 (HTT mRNA; [3])

Cn1cc2cc(-c3ccc4cc(NC5CCNCC5)cnc4n3)c(O)c(F)c2n1 [Compound 285]
100 to 1000 nM: IC50 (HTT mRNA; [1]) | IC50 (HTT mRNA; [2]) | AC50 (HTT mRNA; [3]) | IC50 (MYB mRNA; [4]) | AC50 (MYB mRNA; [3]) | IC50 (MYB mRNA; [5])
1000 to 10000 nM: IC50 (Target C mRNA)

CN[C@@H]1CCN(c2cnc3nc(-c4cc5cn(C)nc5c(C)c4O)cc(Cl)c3c2)C1 [Compound 286, 5-{4-chloro-6-[(3R)-3-(methylamino)pyrrolidin-1-yl]-1,8-naphthyridin-2-yl}-2,7-dimethylindazol-6-ol hydrochloride]
< 100 nM: IC50 (Target C mRNA) | IC50 (HTT mRNA; [1]) | IC50 (HTT mRNA; [2]) | AC50 (HTT mRNA; [3]) | IC50 (MYB mRNA; [4]) | AC50 (MYB mRNA; [3]) | IC50 (MYB mRNA; [5])

CN[C@H]1CCN(c2cnc3nc(-c4cc5cn(C)nc5c(C)c4O)cc(Cl)c3c2)C1.Cl [Compound 287]
< 100 nM: IC50 (HTT mRNA; [1]) | IC50 (HTT mRNA; [2]) | IC50 (MYB mRNA; [4]) | AC50 (MYB mRNA; [3]) | IC50 (MYB mRNA; [5])
100 to 1000 nM: IC50 (Target C mRNA) | AC50 (HTT mRNA; [3])

C[C@H]1CN(c2cnc3nc(-c4cc(F)c5nn(C)cc5c4)cc(Cl)c3c2)C[C@@H](C2CC2)N1 [Compound 288]
1000 to 10000 nM: IC50 (Target C mRNA) | IC50 (HTT mRNA; [1]) | IC50 (HTT mRNA; [2]) | AC50 (HTT mRNA; [3])
100 to 1000 nM: IC50 (MYB mRNA; [4]) | AC50 (MYB mRNA; [3]) | IC50 (MYB mRNA; [5])

Cc1c(O)c(-c2cc(Cl)c3cc(N(C)[C@@H]4CCNC4)cnc3n2)cc2cn(C)nc12.Cl [Compound 293]
1000 to 10000 nM: IC50 (Target C mRNA)
100 to 1000 nM: IC50 (HTT mRNA; [1]) | IC50 (HTT mRNA; [2]) | AC50 (HTT mRNA; [3]) | IC50 (MYB mRNA; [4]) | AC50 (MYB mRNA; [3]) | IC50 (MYB mRNA; [5])

Cc1c(O)c(-c2cc(Cl)c3cc(N(C)[C@H]4CCNC4)cnc3n2)cc2cn(C)nc12 [Compound 294]
1000 to 10000 nM: IC50 (Target C mRNA) | AC50 (HTT mRNA; [3])
100 to 1000 nM: IC50 (HTT mRNA; [1]) | IC50 (HTT mRNA; [2]) | IC50 (MYB mRNA; [4]) | AC50 (MYB mRNA; [3]) | IC50 (MYB mRNA; [5])

C[C@@H]1CN(c2cnc3nc(-c4cc(F)c5nn(C)cc5c4)cc(Cl)c3c2)CCN1 [Compound 295, 4-chloro-2-(7-fluoro-2-methylindazol-5-yl)-6-[(3R)-3-methylpiperazin-1-yl]-1,8-naphthyridine]
100 to 1000 nM: IC50 (HTT mRNA; [1]) | IC50 (HTT mRNA; [2]) | AC50 (HTT mRNA; [3]) | AC50 (MYB mRNA; [3])
1000 to 10000 nM: IC50 (Target C mRNA)
< 100 nM: IC50 (MYB mRNA; [4]) | IC50 (MYB mRNA; [5])

C[C@H]1CN(c2cnc3nc(-c4cc(F)c5nn(C)cc5c4)cc(Cl)c3c2)CCN1 [Compound 296]
< 100 nM: IC50 (MYB mRNA; [4]) | IC50 (MYB mRNA; [5])
100 to 1000 nM: IC50 (HTT mRNA; [1]) | IC50 (HTT mRNA; [2]) | AC50 (MYB mRNA; [3])
1000 to 10000 nM: IC50 (Target C mRNA) | AC50 (HTT mRNA; [3])

Cc1cn2cc(-c3cc(Cl)c4cc(N5C[C@@H](C)N[C@@H](C)C5)cnc4n3)cc(F)c2n1 [Compound 297]
100 to 1000 nM: IC50 (MYB mRNA; [4]) | AC50 (MYB mRNA; [3]) | IC50 (MYB mRNA; [5])
> 10000 nM: IC50 (Target C mRNA)
1000 to 10000 nM: IC50 (HTT mRNA; [1]) | IC50 (HTT mRNA; [2]) | AC50 (HTT mRNA; [3])
